Test results as given in PMC9929232, “On-demand male contraception via acute inhibition of soluble adenylyl cyclase” (Nature Communications, 2023).
Several values for one entry are separate records, joined by “and”; a condition that tells them apart may be missing. Equal values may be shown once.

Key:
[1] = target: T1, purified recombinant human sAC protein (Homo sapiens, UniProt Q96PN6); assay: In vitro adenylyl cyclase activity assay (two-column method);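 for cyclase activity (%): 100% equals DMSO vehicle-treated control activity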; assay type: biochemical; settings: for cyclase activity (%): Fig. 1c normalized replicates; for cyclase activity: Fig. 1c replicates
T1 construct: human sACt protein was incubated
T1 sequence (Q96PN6 1-469 limits assumed): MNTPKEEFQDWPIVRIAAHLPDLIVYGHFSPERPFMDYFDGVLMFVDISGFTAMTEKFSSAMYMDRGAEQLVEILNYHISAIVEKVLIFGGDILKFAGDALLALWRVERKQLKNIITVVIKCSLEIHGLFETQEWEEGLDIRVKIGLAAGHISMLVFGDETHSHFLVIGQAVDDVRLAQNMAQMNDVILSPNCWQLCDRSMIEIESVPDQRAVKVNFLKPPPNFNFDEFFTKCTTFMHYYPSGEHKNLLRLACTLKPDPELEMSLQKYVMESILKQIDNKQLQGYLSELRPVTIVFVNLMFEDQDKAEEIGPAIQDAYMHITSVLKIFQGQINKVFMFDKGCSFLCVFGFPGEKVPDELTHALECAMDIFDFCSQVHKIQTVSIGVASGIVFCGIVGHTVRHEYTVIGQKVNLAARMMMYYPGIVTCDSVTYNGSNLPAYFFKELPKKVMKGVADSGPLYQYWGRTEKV
Description: All in vitro adenylyl cyclase activity assays were performed via the “two-column” method measuring the conversion of [α-^32P] ATP into [^32P] cAMP[54], as previously described. Briefly, human sACt protein was incubated in buffer containing 50 mM Tris-HCl, pH 7.5, 4 mM MgCl2, 2 mM CaCl2, 1 mM ATP, 3 mM DTT, 40 mM NaHCO3 in the presence of the indicated concentrations of different sAC inhibitors or vehicle (1% DMSO).

[2] = target: T2, immobilized human sAC protein (Homo sapiens, UniProt Q96PN6); assay: Surface plasmon resonance binding kinetics;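 note: Reference-channel response subtracted from active-channel response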; settings: Fig. 1e
T2 construct: recombinant purified His-tagged sACt protein (50 μg/ml)
T2 sequence (Q96PN6 1-469 limits assumed): T1 sequence (Q96PN6 1-469 limits assumed)
Description: Association and dissociation rate constants of sAC inhibitors were obtained with a Biacore 8K instrument (Cytiva) using a parallel kinetics protocol. Series S Sensor NTA chips (Cytiva) were prepared by applying recombinant purified His-tagged sACt protein (50 μg/ml) in PBS-P+ buffer (1 mM KH2PO4, 150 mM NaCl, 6 mM Na2HPO4, 0.05% (w/v) P20 Surfactant). The His-tagged sAC protein was captured via Ni^2+-His-tag chelation and covalently immobilized by amine coupling with a 1:1 mixture of 1-ethyl-3-(3-dimethylaminopropyl) carbodiimide and N-hydroxysuccinimide (active channels). After coupling, remaining reactive groups on the chip’s surface were blocked with 1 M ethanolamine followed by 350 mM EDTA to wash away any free Ni^2+. Following preparation, TBS-P+ running buffer (50 mM Tris, 150 mM NaCl, and 0.05% P20 Surfactant) supplemented with 1% DMSO was flowed over the surface of the chip until a stable baseline was obtained. For each sAC inhibitor, which were dissolved in DMSO and diluted in running buffer, increasing concentrations were injected into parallel channels for 120 s at a flow rate of 50 µl/min followed by running buffer for 600 s to allow for dissociation. All experiments included reference channels; i.e., inhibitor run over parallel channels without immobilized protein. […] Curves were fitted, and kon, KD, and koff values were determined using the Biacore 8K Insight Evaluation Software Version 2.0 (Cytiva) and a 1:1 binding kinetics model.

[3] = test system: epididymal mouse sperm; assay: Ex vivo cAMP generation in epididymal sperm from inhibitor-treated male mice (oral or i.p.)
Description: For capacitation, sperm were incubated for 90 min in TYH containing 3 mg/ml BSA and 25 mM NaHCO3 in a 37 °C incubator. To control for the consequences of dilution during isolation of epididymal mouse sperm for ex vivo assays, we assessed the ability of bicarbonate to induce a prototypical pattern of tyrosine phosphorylation (pY) which is a widely used molecular hallmark of capacitation[53]. […] For experiments studying sperm from injected mice, ‘swim out’ was performed in 200 μl TYH, which corresponded to a 1:10 dilution from epididymis (20 μg cauda in 200 μl buffer). Capacitation-induced changes were assessed by adding 50 µl of ‘swim out’ sperm to increasing volumes of capacitating TYH buffer.
Intracellular cAMP levels were quantified using the Direct cAMP ELISA kit (Enzo) as above.

[4] = concentration (uM) -0.52288 [sic]
[5] = concentration (uM) -1.95424 [sic]
[6] = concentration (uM) -2.43136 [sic]
[7] = concentration (uM) -2.90848 [sic]
[8] = concentration (uM) -3.38561 [sic]
[9] = concentration (uM) printed 0.477121
[10] = concentration (uM) printed -1.47712

With `Cc1c(Cc2ccccc2)c(-c2cc(Cl)nc(N)n2)nn1C` [TDI-10229, reference compound] the “cyclase activity (%)” value ([1]; concentration (uM) 0) was 9.237% and 13.938% and 16.2416% and 14.0981% and 17.1651% and 16.2955%, the “cyclase activity (%)” value [1, 4] was 31.1405% and 32.9975% and 35.8708% and 34.2006% and 36.7402% and 35.3317% and the “cyclase activity (%)” value ([1]; concentration (uM) -1 [sic]) was 63.6617% and 56.9124% and 60.5839% and 60.8807% and 64.5679% and 61.7683%. The “cyclase activity (%)” value [1, 5] was 97.3105% and 99.8737% and 91.8341% and 99.076% and 99.9562% and 83.5123%, the “cyclase activity (%)” value [1, 6] was 102.738% and 99.4561% and 103.778% and 98.5001% and 102.473% and 98.7264% and the “cyclase activity (%)” value [1, 7] was 99.2726% and 96.965% and 102.643% and 103.079% and 106.167% and 104.578%. For the same molecule, the “cyclase activity (%)” value [1, 8] was 100%, the “cyclase activity (%)” value [1, 9] was 2.892% and 2.778% and 4.319% and 3.785% and 3.6574% and 3.195% and the “cyclase activity (%)” value ([1]; concentration (uM) printed 1) was 0%. For the same molecule, the “cyclase activity (%)” value [1, 10] was 87.3934% and 85.1243% and 83.28% and 86.7752% and 79.7419% and 79.6259%, the cyclase activity ([1]; concentration (uM) 0) was 4537 and 5556.7 and 5828.8 and 5224.3 and 5509.4 and 5355.1 and the cyclase activity [1, 4] was 10764.2 and 10900.3 and 11166.7 and 10456.8 and 10112.3 and 9643.4. For the same molecule, the cyclase activity ([1]; concentration (uM) -1 [sic]) was 20009.8 and 17605.2 and 17887.1 and 17401.4 and 16655.7 and 15598.8, the cyclase activity [1, 5] was 29576 and 29650 and 26385.2 and 27343.3 and 24976.9 and 20497.1 and the cyclase activity [1, 6] was 31119 and 29532.9 and 29633.3 and 27193.4 and 25568.8 and 23924.4. For the same molecule, the cyclase activity [1, 7] was 30133.8 and 28834.5 and 29324.4 and 28385.2 and 26437.3 and 25242.7, the cyclase activity [1, 8] was 30340.6 and 29685.4 and 28605.8 and 27583.8 and 24987.2 and 24211.3 and the cyclase activity [1, 9] was 2733.4 and 2427.8 and 2586.5 and 2539.8 and 2333.2 and 2403.9. The cyclase activity ([1]; concentration (uM) printed 1) was 1911.1 and 1649 and 1412.1 and 1554.7 and 1473.2 and 1684.2, the cyclase activity [1, 10] was 26756.6 and 25514.8 and 24059 and 24141.5 and 20223.7 and 19621.6 and the SPR sensorgram response ([2]; 2.3 nM, Time 1.8 s) was -0.005. It also gave an SPR sensorgram response ([2]; 2.3 nM, Time 1.9 s) of -0.0004, an SPR sensorgram response ([2]; 2.3 nM, Time 2 s) of 1.724e-7 and an SPR sensorgram response ([2]; 7 nM, Time 1.8 s) of 0.0365. For the same molecule, the SPR sensorgram response ([2]; 7 nM, Time 1.9 s) was 0.0954, the SPR sensorgram response ([2]; 7 nM, Time 2 s) was 0.1127 and the SPR sensorgram response ([2]; 21 nM, Time 1.8 s) was 0.0362. It also gave an SPR sensorgram response ([2]; 21 nM, Time 1.9 s) of 0.0362, an SPR sensorgram response ([2]; 21 nM, Time 2 s) of 0.0493 and an SPR sensorgram response ([2]; 62 nM, Time 1.8 s) of 0.4405. The SPR sensorgram response ([2]; 62 nM, Time 1.9 s) was 0.5261, the SPR sensorgram response ([2]; 62 nM, Time 2 s) was 0.5966 and the SPR sensorgram response ([2]; 185 nM, Time 1.8 s) was 1.6528. The SPR sensorgram response ([2]; 185 nM, Time 1.9 s) was 1.8027, the SPR sensorgram response ([2]; 185 nM, Time 2 s) was 1.949 and the SPR sensorgram response ([2]; 555 nM, Time 1.8 s) was 3.219. The SPR sensorgram response ([2]; 555 nM, Time 1.9 s) was 3.5189, the SPR sensorgram response ([2]; 555 nM, Time 2 s) was 3.8049 and the SPR sensorgram response ([2]; 1670 nM, Time 1.8 s) was 10.7814. For the same molecule, the SPR sensorgram response ([2]; 1670 nM, Time 1.9 s) was 11.5936, the SPR sensorgram response ([2]; 1670 nM, Time 2 s) was 12.3892 and the “bicarbonate-induced cAMP response, sperm directly isolated” value ([3]; 50 mg/kg i.p.) was “prevented bicarbonate-induced increase in cAMP”. The “bicarbonate-induced cAMP response, sperm measured directly” value ([3]; 50 mg/kg oral, 1 hour, cauda sperm) was “no bicarbonate-induced increase in cAMP”, the “normalized cAMP, diluted” value ([3]; Fig. 3a replicates, 50 mg/kg oral gavage, 100-fold dilution into inhibitor-free media, capacitating relative to non-capacitated, 50 mg/kg) was 2.085 and 1.745 and 2.432 and 2.093 and 1.3062 and 3.591 and 2.931 and 3.583 and the “normalized cAMP, non-diluted” value ([3]; Fig. 3a replicates, 50 mg/kg oral gavage, capacitating relative to non-capacitated sperm of same mouse, 12 minutes, 50 mg/kg) was 1.449 and 1.743 and 0.3 and 0.7791 and 0.9239 and 0.4534 and 0.1485 and 0.05415. The “normalize cAMP, diluted” value ([3]; Fig. 3c replicates, 50 mg/kg i.p., 100-fold dilution into inhibitor-free media, capacitating relative to non-capacitated, 50 mg/kg) was 1.94 and 1.936 and 3.937 and 2.155 and 1.983 and 3.104 and 1.124 and 4 and 3.176 and 2.922 and 1.239 and the “normalize cAMP, non-diluted” value ([3]; Fig. 3c replicates, 50 mg/kg i.p., capacitating relative to non-capacitated sperm of same mouse, 12 minutes, 50 mg/kg) was 0.2801 and 0.5834 and 0.6474 and 0.2247 and 1.279 and 0.9423 and 1.0897 and 0.542 and 0.3506 and 1.1072 and 1.1267.
